These results are taken from patent publication US20040266862A1, “Method of improving animal tissue quality by supplementing the animal diet with mixed tocotrienols” (priority 2003, published 2004).

Common to all, as to type: in vivo
Assay [1] concerns swine. Kind of assay: 2002 swine feed test: 21-day raw pork loin quality measurements. More on the design: key to Hunter a: Hunter a; more positive = redder; key to Hunter b: Hunter b; more positive = more yellow; Hunter a* / Hunter b*: scale not given here. The note with it: for Chop purge, % / Cooking Loss, %: 21-day pork loin; for Hunter L / Hunter L* / Hunter a / Hunter a* / Hunter b / Hunter b* / Loin pH / Loin purge, %: 21-day raw pork loin; for Instron force, kg: force to pierce loin chop. The source says:
Applicants conducted a second swine feeding trial to further determine the effects on meat quality of supplementation of a swine diet with alpha-tocopherol (AT), gamma-tocopherol (GT) or mixed tocotrienols (MT). Seventy-two barrows (˜75 lbs.) were transported to the Pioneer Livestock Nutrition Center (PLNC) and randomly placed into individual pens with water and feed provided ad libitum. The pigs received a common diet for seven days. On the eighth day the pigs were weighed individually and a uniform group of sixty pigs with an average body weight of about 75 pounds was selected. The pigs were randomly assigned one of five dietary treatments with 12 pigs per treatment. The feeding trial was initiated on Mar. 12, 2002 and ended on Jun. 19, 2002.
The pigs were fed a corn-soybean meal diet formulated to provide adequate levels of all nutrients. In addition, one of five dietary treatments was assigned to each group: control, 300 ppm AT, 450 ppm GT, 150 ppm MT, and 300 ppm MT. To each diet a corn oil premix and a ground corn premix were added with the corn oil premix as a carrier for the supplemental tocopherols and the ground corn premix as the carrier for the MT. The MT supplement was obtained commercially from Fuji Chemical Industries (U.S.A.) Inc. of Robbinsville, N.J., and contained 7.5% alpha-, 12.3% gamma- and 3.0% delta-tocotrienol, as well as 7.2% alpha-tocopherol.
Approximately twenty-one days after slaughter the loins were removed from vacuum bags and weighed. The liquid that had accumulated in the bags during storage was measured to calculate 21-day purge. Loin pH was measured at three locations by carefully inserting a glass probe into the mid-point of the anterior, mid and posterior thirds of each loin. As expected, measurement location (blade, chop or shoulder) affected loin pH, Hunter L, L* and a* values.
The Hunter L, a and b values were measured with a Hunter laboratory system for color evaluation. Hunter L is a measurement of the lightness of an object, and may be thought of as the light reflectance from the surface of an object. Thus, a higher Hunter L value indicates a lighter color, and an L value of 100 would indicate prefect reflectance from the surface. (The white standard has an L value of 97.21.) An increasingly positive Hunter a value indicates a redder color, and an increasingly positive Hunter b value indicates a more yellow color.

The test system of assay [2] is swine. The assay can be described thus: 2002 swine feed test: fat and TBARS content of raw ground pork. The source says: Applicants conducted a second swine feeding trial to further determine the effects on meat quality of supplementation of a swine diet with alpha-tocopherol (AT), gamma-tocopherol (GT) or mixed tocotrienols (MT). Seventy-two barrows (˜75 lbs.) were transported to the Pioneer Livestock Nutrition Center (PLNC) and randomly placed into individual pens with water and feed provided ad libitum. The pigs received a common diet for seven days. On the eighth day the pigs were weighed individually and a uniform group of sixty pigs with an average body weight of about 75 pounds was selected. The pigs were randomly assigned one of five dietary treatments with 12 pigs per treatment. The feeding trial was initiated on Mar. 12, 2002 and ended on Jun. 19, 2002. The pigs were fed a corn-soybean meal diet formulated to provide adequate levels of all nutrients. In addition, one of five dietary treatments was assigned to each group: control, 300 ppm AT, 450 ppm GT, 150 ppm MT, and 300 ppm MT. To each diet a corn oil premix and a ground corn premix were added with the corn oil premix as a carrier for the supplemental tocopherols and the ground corn premix as the carrier for the MT. The MT supplement was obtained commercially from Fuji Chemical Industries (U.S.A.) Inc. of Robbinsville, N.J., and contained 7.5% alpha-, 12.3% gamma- and 3.0% delta-tocotrienol, as well as 7.2% alpha-tocopherol. Trimmed bellies were collected to measure the effects of dietary treatments on ground pork oxidation rate. The bellies were ground through a meat grinder and mixed. Four one-pound samples of each ground belly were placed on a retail meat tray and covered with oxygen permeable film. On each of days 1, 7, 10 and 16 post-grinding, one of the trays was opened and a sample submitted for TBARS (thiobarbituric acid reactive substances) determination, a measure of the extent of oxidation.

The next assay concerns chickens. Kind of assay: 2002 poultry feed test: TBARS content of raw ground chicken thighs. The settings on record: 300 ppm in diet. The text has this: Applicants also assessed the effects of antioxidant supplementation on meat quality in an experiment in which meat from chickens fed one of four dietary treatments was compared. On Jul. 25, 2002, day-old chicks were obtained from a commercial company. The birds were housed in a brooder until Aug. 11, 2002. On Aug. 11, forty-eight birds were randomly allocated to one of four pens (twelve birds per pen). Birds in each pen were offered ad libitum access to one of four treatment diets: control, 300 ppm AT, 300 ppm GT or 150 ppm MT. The MT premix contained a commercially available MT supplement (7.5% alpha-, 12.3% gamma- and 3.0% delta-tocotrienol and 7.2% alpha-tocopherol) mixed with ground corn as the carrier. The total MT premix (ground corn plus MT supplement) represented 2.5% w/w of the finished MT supplemented feed.
On Sep. 13, 2002 (seven weeks of age) the birds were harvested, identified and frozen at −20C. The birds were stored frozen at −20C for 136-159 days post slaughter. On days 136, 156, 157, 158 and 159 (where available) two birds per dietary treatment were thawed in cold water. Meat was removed from the breasts (pectoralis major muscles) and thighs. Breast meat from each chicken was ground through a 3 mm disc in a Krups Butcher Shop 150W Professional Power Meat Grinder. Thigh meat from two chickens was combined (for days 156, 157, 158 and 159; day 136 thigh meat was kept separate for each bird) and ground in a similar manner. Patties were made (10 g for breast; 60 g for thighs) using a 100×15 mm Petri dish as a mold.
Patties were quartered and each quarter was stored at 2.2C for a designated period of time. One quarter was used per sampling period. Sampling periods for the raw ground meat were day 0, day 3, day 7 and day 10. Thiobarbituric acid reacting substances (TBARS) analyses was performed on the raw ground chicken breasts and thighs according to the procedure of Ahn, D. U., D. G. Olson, C. Jo, X. Chen, C. Wu, and J. I. Lee, “Effect of Muscle Type, Packaging, and Irradiation on Lipid Oxidation, Volatile Production and Color in Raw Pork Patties”, Meat Sci. 49:27-39 (1998).

Structures are written as SMILES. Marks after values point to notes of the source that are not given here.

In the case of `Cc1c(C)c2c(c(C)c1O)CC[C@@](C)(CCC[C@H](C)CCC[C@H](C)CCCC(C)C)O2` [AT, alpha-tocopherol], in the assay with swine [1] (300 ppm in diet), the “Chop purge, %” value is listed as 1.97%; the “Cooking Loss, %” value came out at 20.11%; the “Hunter L” value was 46.68; the “Hunter L*” value is reported as 53.86. Also, in the assay on swine [1] (300 ppm in diet), the Hunter a was determined as 5.71, the “Hunter a*” value came out at 6.76, the Hunter b was 8.60 and the “Hunter b*” value came to 15.77. For the same molecule, in the assay with swine [1] (300 ppm in diet), the “Loin pH” value was found to be 5.66; the “Loin purge, %” value is recorded as 0.99%; the “Instron force, kg” value was 4.98^b kg. Also, in the assay on swine [2] (Day 1 post-grinding, 300 ppm in diet), the TBARS content was 0.13 mg Malonaldehyde/kg sample. In addition, the TBARS content in the assay on swine [2] (Day 7 post-grinding, 300 ppm in diet) is 0.18 mg Malonaldehyde/kg sample. In addition, the TBARS content with swine [2] (Day 10 post-grinding, 300 ppm in diet) was 0.34 mg Malonaldehyde/kg sample. In addition, in the assay with swine [2] (Day 16 post-grinding, 300 ppm in diet), the TBARS content is 1.46^ab mg Malonaldehyde/kg sample. The TBARS content in the assay on chickens (Day 0 at 2.2C) was 0.3438 mg Malonaldehyde/kg sample. The TBARS content in the assay on chickens (Day 3 at 2.2C) is 0.1810 mg Malonaldehyde/kg sample. For the same molecule, the TBARS content in the assay on chickens (Day 7 at 2.2C) is 0.2448 mg Malonaldehyde/kg sample. In the assay with chickens (Day 10 at 2.2C), the TBARS content is 0.4482 mg Malonaldehyde/kg sample.

With `Cc1c(O)cc2c(c1C)O[C@](C)(CCC[C@H](C)CCC[C@H](C)CCCC(C)C)CC2` [GT, gamma-tocopherol], in the assay with swine [1] (450 ppm in diet), the “Chop purge, %” value is 2.40%; the “Cooking Loss, %” value is recorded as 20.27%; the “Hunter L” value was determined as 45.47; the “Hunter L*” value amounted to 52.53. For the same molecule, in the assay on swine [1] (450 ppm in diet), the Hunter a is 6.00, the “Hunter a*” value is listed as 7.14, the Hunter b is reported as 8.41 and the “Hunter b*” value is 15.61. Further, in the assay on swine [1] (450 ppm in diet), the “Loin pH” value was determined as 5.67; the “Loin purge, %” value was 1.16%; the “Instron force, kg” value is given as 5.53^a kg. In the assay on swine [2] (Day 1 post-grinding, 450 ppm in diet), the TBARS content is given as 0.19 mg Malonaldehyde/kg sample. Moreover, the TBARS content with swine [2] (Day 7 post-grinding, 450 ppm in diet) was 0.17 mg Malonaldehyde/kg sample. Also, in the assay with swine [2] (Day 10 post-grinding, 450 ppm in diet), the TBARS content is on record as 0.32 mg Malonaldehyde/kg sample. Further, the TBARS content in the assay with swine [2] (Day 16 post-grinding, 450 ppm in diet) is 1.01^b mg Malonaldehyde/kg sample. Further, the TBARS content in the assay with chickens (Day 0 at 2.2C) is listed as 0.2493 mg Malonaldehyde/kg sample. Besides, in the assay with chickens (Day 3 at 2.2C), the TBARS content is reported as 0.2010 mg Malonaldehyde/kg sample. Moreover, the TBARS content in the assay on chickens (Day 7 at 2.2C) was 0.1626 mg Malonaldehyde/kg sample. Moreover, the TBARS content in the assay with chickens (Day 10 at 2.2C) is on record as 0.3557 mg Malonaldehyde/kg sample.
